According to US20060142269A1, “New compounds” (priority 2004, published 2006):
Structures can show the parent of a compound that is named as a salt. Where two headings read alike, the source gives them in different places.

What was measured:
human 5-HT6 receptor [1] = target: T1, human 5-HT6 receptor (Homo sapiens, UniProt P50406); assay: 5-HT6 receptor binding assay ([3H]-LSD displacement, SPA, membranes of transfected HEK293 cells)
T1 construct: expressed in transfected cells; host or cells: HEK293 (G-418 selected)
T1 sequence (P50406 whole entry): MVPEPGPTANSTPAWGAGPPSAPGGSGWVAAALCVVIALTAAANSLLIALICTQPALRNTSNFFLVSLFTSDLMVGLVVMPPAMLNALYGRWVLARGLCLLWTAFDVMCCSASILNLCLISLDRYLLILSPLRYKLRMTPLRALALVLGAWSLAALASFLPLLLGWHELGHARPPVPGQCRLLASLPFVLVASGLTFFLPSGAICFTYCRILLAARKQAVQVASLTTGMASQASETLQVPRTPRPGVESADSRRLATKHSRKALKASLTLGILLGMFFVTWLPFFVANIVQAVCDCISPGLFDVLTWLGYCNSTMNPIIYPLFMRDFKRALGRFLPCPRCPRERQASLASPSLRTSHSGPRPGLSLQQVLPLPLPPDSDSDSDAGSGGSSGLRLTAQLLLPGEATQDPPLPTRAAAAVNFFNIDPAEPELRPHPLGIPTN

human 5-HT6 receptor [2] = target: T1, human 5-HT6 receptor; assay: 5-HT6 receptor intrinsic activity assay (inhibition of 5-HT induced increase in cAMP in HEK293/5-HT6 cells); type: cell-based; conditions: read-out: Antagonist potency at the human 5-HT6 receptor, IC50,corr
Protocol: (1997) Neuropharmacology 36: 713-720). Briefly, HEK293/5-HT6 cells were seeded in polylysine coated 96-well plates at a density of 25,000/well and grown in DMEM (Dulbecco's Modified Eagle Medium) (without phenol-red) containing 5% dialyzed Foetal Bovine Serum for 48 h at 37° C. in a 5% CO2 incubator. The medium was then aspirated and replaced by 0.1 ml assay medium (Hanks Balance Salt Solution containing 20 mM HEPES, 1.5 mM isobutylmethylxanthine and 1 mg/ml bovine serum albumin). After addition of test substances, 50 μl dissolved in assay medium, the cells were incubated for 10 min at 37° C. in a 5% CO2 incubator. The medium was again aspirated and the cAMP content was determined using a radioactive cAMP kit (Amersham Pharmacia Biotech, BIOTRAK RPA559).

[3] = [3H]LSD 3 nM, HEK293 membranes, read-out: Binding affinity (Ki) at the human 5-HT6 receptor

Structure (SMILES)	IC50 (human 5-HT6 receptor [2])	further results
COc1ccc(C)cc1OS(=O)(=O)c1cc(N2CCNCC2)c2occc2c1 [Example 1, 2-Methoxy-5-methylphenyl 7-piperazin-1-yl-1-benzofuran-5-sulfonate, trifluoroacetate]		Ki (human 5-HT6 receptor [1]; [3]): 0.6 nM
O=S(=O)(Oc1ccccc1Cl)c1cc(N2CCNCC2)c2occc2c1 [Example 2, 2-Chlorophenyl 7-piperazin-1-yl-1-benzofuran-5-sulfonate, trifluoroacetate]	24 nM	Ki (human 5-HT6 receptor [1]; [3]): 2.3 nM
O=S(=O)(Oc1ccccc1C(F)(F)F)c1cc(N2CCNCC2)c2occc2c1 [Example 3, 2-(Trifluoromethyl)phenyl 7-piperazin-1-yl-1-benzofuran-5-sulfonate, trifluoroacetate]		Ki (human 5-HT6 receptor [1]; [3]): 2 nM
COc1ccc(C)cc1OS(=O)(=O)c1cc(CN2CCN(C)CC2)c2occc2c1 [Example 5, 2-Methoxy-5-methylphenyl 7-[(4-methylpiperazin-1-yl)methyl]-1-benzofuran-5-sulfonate bis(trifluoroacetate)]	49 nM	
NCCc1c[nH]c2ccc(O)cc12 [Example 5-HT, 5-hydroxytryptamine]		Hill coefficient (human 5-HT6 receptor [1]; over three experiments): 0.94 (SD 0.09)
CN1CCN(c2cc(S(=O)(=O)Oc3cccnc3)cc3ccoc23)CC1 [Example 7, Pyridin-3-yl 7-(4-methylpiperazin-1-yl)-1-benzofuran-5-sulfonate trifluoroacetate]	73 nM	
COc1cccc(OS(=O)(=O)c2cc(N3CCN[C@H](C)C3)c3occc3c2)c1OC [Example 9, 2,3-Dimethoxyphenyl 7-[(3R)-3-methylpiperazin-1-yl]-1-benzofuran-5-sulfonate trifluoroacetate]	49 nM	
C[C@@H]1CN(Cc2cc(S(=O)(=O)Oc3ccccc3C(N)=O)cc3ccoc23)CCN1 [Example 16, 2-(Aminocarbonyl)phenyl 7-{[(3R)-3-methylpiperazin-1-yl]methyl}-1-benzofuran-5-sulfonate bis(trifluoroacetate)]	199 nM	
COc1ccc(C)cc1OS(=O)(=O)c1cc(CN2CCCNCC2)c2occc2c1 [Example 18, 2-Methoxy-5-methylphenyl 7-(1,4-diazepan-1-ylmethyl)-1-benzofuran-5-sulfonate trifluoroacetate]	487 nM	
CN1C[C@@H](NS(=O)(=O)N(C)C)C[C@@H]2c3cccc4c3c(cn4C)C[C@H]21 [mesulergide]		Ki (human 5-HT6 receptor [1]; over all average, 5-HT tested against two different membrane preparations, read-out: Ki value, inhibition of [3H]LSD binding (rank order of potency of unlabelled ligands)): 1970 nM
CC[C@@H](CO)NC(=O)[C@@H]1C=C2c3cccc4c3c(cn4C)C[C@H]2N(C)C1 [methysergide]		Ki (human 5-HT6 receptor [1]): 482 nM
